pEC50: −log10 of the molar value. Like-named read-outs stand apart in the source and are kept apart here. Numbered stars: 1 amine (or outer) side, 2 acyl side, 3 side chain; on linkers, the order of the positions; unused ones are H or OH. Square brackets hold non-standard residues; d marks the D form. Side chains are listed from the residue outwards. Peptide text beside a SMILES is read from it. * marks the point of attachment. γGlu = O=C(O)[C@H](CCC(=O)[*:2])N[*:1]; Palmitoyl = CCCCCCCCCCCCCCCC(=O)*; αMeF = C[C@](N)(Cc1ccccc1)C(=O)O; αMeK = C[C@](N)(CCCCN)C(=O)O; αMeS = C[C@](N)(CO)C(=O)O; Aib = CC(C)(N)C(=O)O
Target: T1, human GLP-1 receptor (GLP-1R) (Homo sapiens, UniProt P43220)
T1 construct: expressed in transfected cells; host or cells: HEK293 cells or CHO cells
T1 sequence (P43220 24-463): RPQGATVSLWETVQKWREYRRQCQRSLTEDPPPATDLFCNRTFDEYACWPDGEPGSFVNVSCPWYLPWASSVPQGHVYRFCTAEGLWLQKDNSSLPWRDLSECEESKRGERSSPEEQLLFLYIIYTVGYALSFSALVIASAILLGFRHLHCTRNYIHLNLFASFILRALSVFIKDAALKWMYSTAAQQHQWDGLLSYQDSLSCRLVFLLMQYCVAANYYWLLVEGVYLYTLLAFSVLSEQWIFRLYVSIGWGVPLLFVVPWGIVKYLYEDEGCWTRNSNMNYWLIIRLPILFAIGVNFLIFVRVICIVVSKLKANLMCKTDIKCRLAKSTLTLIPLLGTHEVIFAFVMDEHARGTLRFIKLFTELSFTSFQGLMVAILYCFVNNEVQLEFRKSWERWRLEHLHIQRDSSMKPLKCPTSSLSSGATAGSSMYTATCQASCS
Experiment: cAMP assay, human GLP-1R cells
Type: cell-based
Settings: cAMP activity; for EC50: mean of n1 and n2, read-out: Mean pM GLP-1R
Description: Sample dilutions are made in duplicate.
A frozen cryo-vial of cells expressing the receptor of interest is thawed rapidly in a water-bath, transferred to pre-warmed assay buffer and spun at 240×g for 5 minutes. Cells are re-suspended in assay buffer at a batch-dependent optimized concentration (e.g. hGCGR cells at 2×10^5 cells/ml, hGLP-1R and hGIPR cells at 1×10^5 cells/ml).
To this, 5 μL cell suspension is added and the plates incubated at room temperature for 30 minutes.
cAMP levels are measured using a commercially available cAMP dynamic 2 HTRF kit (Cisbio, Cat #62AM4PEJ), following the two step protocol as per manufacturer's recommendations. In brief; anti-cAMP cryptate (donor fluorophore) and cAMP-d2 (acceptor fluorophore) are made up separately by diluting each 1/20 in conjugate & lysis buffer provided in the kit. 5 μL anti-cAMP cryptate is added to wells of the assay plate, and 5 μL cAMP-d2 is added to wells except non-specific binding (NSB) wells, to which conjugate and lysis buffer are added. […] EC50 values of the synthetic peptides determined in cAMP assays are then determined.
Data is transformed to % Delta F as described in the manufacturer's guidelines and analyzed by 4-parameter logistic fit to determine EC50 values. […] To compare the balance of activities at the GLP-1R and GCGR between different peptides and across different conditions, these can be correlated, where the EC50's are related to those of comparator peptides.

SMILES	EC50 [pM]	pEC50 (second determination (n2), read-out: Primary assay EC50 GLP-1R n2)
CC[C@H](C)[C@H](NC(=O)[C@](C)(Cc1ccccc1)NC(=O)[C@H](CCC(=O)O)NC(=O)[C@](C)(CCCCN)NC(=O)[C@H](C)NC(=O)[C@H](C)NC(=O)[C@H](CCC(=O)O)NC(=O)CNC(=O)[C@H](CCC(=O)O)NC(=O)[C@H](CC(C)C)NC(=O)[C@](C)(Cc1ccccc1)NC(=O)[C@H](CO)NC(=O)[C@H](CO)NC(=O)[C@@H](NC(=O)[C@H](CCC(=O)O)NC(=O)[C@H](CO)NC(=O)[C@H](CO)NC(=O)[C@](C)(Cc1ccccc1)NC(=O)[C@H](CO)NC(=O)CNC(=O)[C@H](CCC(=O)O)NC(=O)C(C)(C)NC(=O)[C@@H](N)Cc1c[nH]cn1)C(C)C)C(=O)N[C@@H](C)C(=O)N[C@@](C)(Cc1ccccc1)C(=O)N[C@H](C(=O)N[C@H](C(=O)N[C@@](C)(CCCCN)C(=O)NCC(=O)NCC(N)=O)C(C)C)C(C)C [compound 9] (H-H[Aib]EGS[αMeF]SSEVSS[αMeF]LEGEAA[αMeK]E[αMeF]IA[αMeF]VV[αMeK]GG-NH2; N-terminus assumed)	1200	
CC(C)[C@H](NC(=O)[C@H](CCC(=O)O)NC(=O)[C@H](CO)NC(=O)[C@H](CO)NC(=O)[C@](C)(Cc1ccccc1)NC(=O)[C@H](CO)NC(=O)CNC(=O)[C@H](CCC(=O)O)NC(=O)C(C)(C)NC(=O)[C@@H](N)Cc1c[nH]cn1)C(=O)N[C@@H](CO)C(=O)N[C@@H](CO)C(=O)N[C@@](C)(Cc1ccccc1)C(=O)N[C@H](C(=O)N[C@@H](CCC(=O)O)C(=O)NCC(=O)N[C@@H](CCC(=O)O)C(=O)N[C@@H](C)C(=O)N[C@@H](C)C(=O)N[C@@](C)(CCCCN)C(=O)N[C@@H](CCC(=O)O)C(=O)N[C@@](C)(Cc1ccccc1)C(=O)N[C@H](C(=O)N[C@@H](C)C(=O)N[C@@](C)(Cc1ccccc1)C(=O)N[C@H](C(=O)N[C@H](C(=O)N[C@@](C)(CCCCN)C(=O)NCC(=O)NCC(N)=O)C(C)C)C(C)C)C(C)C)C(C)C [compound 12] (H-H[Aib]EGS[αMeF]SSEVSS[αMeF]VEGEAA[αMeK]E[αMeF]VA[αMeF]VV[αMeK]GG-NH2; N-terminus assumed)	2100	
CC[C@H](C)[C@H](NC(=O)[C@](C)(Cc1ccccc1)NC(=O)[C@H](CCC(=O)O)NC(=O)[C@](C)(CCCCN)NC(=O)[C@H](C)NC(=O)[C@H](C)NC(=O)[C@H](CCC(=O)O)NC(=O)CNC(=O)[C@H](CCC(=O)O)NC(=O)[C@H](CC(C)C)NC(=O)[C@](C)(Cc1ccccc1)NC(=O)[C@H](CO)NC(=O)[C@](C)(CO)NC(=O)[C@@H](NC(=O)[C@H](CC(=O)O)NC(=O)[C@H](CCC(=O)O)NC(=O)[C@@H](NC(=O)[C@](C)(Cc1ccccc1)NC(=O)[C@H](CO)NC(=O)CNC(=O)[C@H](CCC(=O)O)NC(=O)C(C)(C)NC(=O)[C@@H](N)Cc1c[nH]cn1)[C@@H](C)O)C(C)C)C(=O)N[C@@H](C)C(=O)N[C@@](C)(Cc1ccccc1)C(=O)N[C@H](C(=O)N[C@H](C(=O)N[C@@](C)(CCCCN)C(=O)NCC(=O)NCC(N)=O)C(C)C)C(C)C [compound 28] (H-H[Aib]EGS[αMeF]TEDV[αMeS]S[αMeF]LEGEAA[αMeK]E[αMeF]IA[αMeF]VV[αMeK]GG-NH2; N-terminus assumed)	4620	8.33
CCCCCCCCCCCCCCCC(=O)N[C@@H](CCC(=O)NCCCC[C@H](NC(=O)[C@](C)(Cc1ccccc1)NC(=O)[C@H](CCC(=O)O)NC(=O)[C@](C)(CCCCN)NC(=O)[C@H](C)NC(=O)[C@H](C)NC(=O)[C@H](CCC(=O)O)NC(=O)CNC(=O)[C@H](CCC(=O)O)NC(=O)[C@H](CC(C)C)NC(=O)[C@](C)(Cc1ccccc1)NC(=O)[C@H](CO)NC(=O)[C@](C)(CO)NC(=O)[C@@H](NC(=O)[C@H](CC(=O)O)NC(=O)[C@H](CO)NC(=O)[C@@H](NC(=O)[C@](C)(Cc1ccccc1)NC(=O)[C@H](CO)NC(=O)CNC(=O)[C@H](CCC(=O)O)NC(=O)C(C)(C)NC(=O)[C@@H](N)Cc1c[nH]cn1)[C@@H](C)O)C(C)C)C(=O)N[C@@H](C)C(=O)N[C@@](C)(Cc1ccccc1)C(=O)N[C@H](C(=O)N[C@H](C(=O)N[C@@](C)(CCCCN)C(=O)NCC(=O)NCC(N)=O)C(C)C)C(C)C)C(=O)O [compound 77] (H-H[Aib]EGS[αMeF]TSDV[αMeS]S[αMeF]LEGEAA[αMeK]E[αMeF]K([γGlu-Palmitoyl])A[αMeF]VV[αMeK]GG-NH2; N-terminus assumed)	1860	

Molecules with a lower EC50, results first:

EC50 [pM]	pEC50 (second determination (n2), read-out: Primary assay EC50 GLP-1R n2)	SMILES
5.1		CC[C@H](C)[C@H](NC(=O)[C@H](Cc1ccccc1)NC(=O)[C@H](CCC(=O)O)NC(=O)[C@H](CCCCN)NC(=O)[C@H](C)NC(=O)[C@H](C)NC(=O)[C@H](CCC(N)=O)NC(=O)CNC(=O)[C@H](CCC(=O)O)NC(=O)[C@H](CC(C)C)NC(=O)[C@H](Cc1ccc(O)cc1)NC(=O)[C@H](CO)NC(=O)[C@H](CO)NC(=O)[C@@H](NC(=O)[C@H](CC(=O)O)NC(=O)[C@H](CO)NC(=O)[C@@H](NC(=O)[C@H](Cc1ccccc1)NC(=O)[C@@H](NC(=O)CNC(=O)[C@H](CCC(=O)O)NC(=O)C(C)(C)NC(=O)[C@@H](N)Cc1c[nH]cn1)[C@@H](C)O)[C@@H](C)O)C(C)C)C(=O)N[C@@H](C)C(=O)N[C@@H](Cc1c[nH]c2ccccc12)C(=O)N[C@@H](CC(C)C)C(=O)N[C@H](C(=O)N[C@@H](CCCCN)C(=O)NCC(=O)N[C@@H](CCCNC(=N)N)C(=O)N[C@@H](CCCCNC(=O)COCCOCCNC(=O)COCCOCCNC(=O)CC[C@H](NC(=O)CCCCCCCCCCCCCCCCC(=O)O)C(=O)O)C(N)=O)C(C)C [compound 6]
90		CC[C@H](C)[C@H](NC(=O)[C@](C)(Cc1ccccc1)NC(=O)[C@H](CCC(=O)O)NC(=O)[C@](C)(CCCCN)NC(=O)[C@H](C)NC(=O)[C@H](C)NC(=O)[C@H](CCC(=O)O)NC(=O)CNC(=O)[C@H](CCC(=O)O)NC(=O)[C@@H](NC(=O)[C@](C)(Cc1ccccc1)NC(=O)[C@H](CO)NC(=O)[C@H](CO)NC(=O)[C@@H](NC(=O)[C@H](CC(=O)O)NC(=O)[C@H](CO)NC(=O)[C@@H](NC(=O)[C@](C)(Cc1ccccc1)NC(=O)[C@H](CO)NC(=O)CNC(=O)[C@H](CCC(=O)O)NC(=O)C(C)(C)NC(=O)[C@@H](N)Cc1c[nH]cn1)[C@@H](C)O)C(C)C)C(C)C)C(=O)N[C@@H](C)C(=O)N[C@@](C)(Cc1ccccc1)C(=O)N[C@H](C(=O)N[C@H](C(=O)N[C@@](C)(CCCCN)C(=O)NCC(=O)NCC(N)=O)C(C)C)C(C)C [compound 10] (H-H[Aib]EGS[αMeF]TSDVSS[αMeF]VEGEAA[αMeK]E[αMeF]IA[αMeF]VV[αMeK]GG-NH2)
118		CC[C@H](C)[C@H](NC(=O)[C@H](Cc1ccccc1)NC(=O)[C@H](CCC(=O)O)NC(=O)[C@H](CCCCN)NC(=O)[C@H](C)NC(=O)[C@H](C)NC(=O)[C@H](CCC(N)=O)NC(=O)CNC(=O)[C@H](CCC(=O)O)NC(=O)[C@H](CC(C)C)NC(=O)[C@H](Cc1ccc(O)cc1)NC(=O)[C@H](CO)NC(=O)C(C)(C)NC(=O)[C@@H](NC(=O)[C@H](CC(=O)O)NC(=O)[C@H](CO)NC(=O)[C@@H](NC(=O)[C@H](Cc1ccccc1)NC(=O)[C@@H](NC(=O)CNC(=O)[C@H](CCC(=O)O)NC(=O)C(C)(C)NC(=O)[C@@H](N)Cc1c[nH]cn1)[C@@H](C)O)[C@@H](C)O)C(C)C)C(=O)N[C@@H](C)C(=O)N[C@@H](Cc1c[nH]c2ccccc12)C(=O)N[C@@H](CC(C)C)C(=O)N[C@H](C(=O)N[C@@H](CCCCN)C(=O)NCC(=O)N[C@@H](CCCNC(=N)N)C(N)=O)C(C)C [compound 22] (H-H[Aib]EGTFTSDV[Aib]SYLEGQAAKEFIAWLVKGR-NH2; N-terminus assumed)
801		CC[C@H](C)[C@H](NC(=O)[C@](C)(Cc1ccccc1)NC(=O)[C@H](CCC(=O)O)NC(=O)[C@](C)(CCCCN)NC(=O)[C@H](C)NC(=O)[C@H](C)NC(=O)[C@H](CCC(=O)O)NC(=O)CNC(=O)[C@H](CCC(=O)O)NC(=O)[C@H](CC(C)C)NC(=O)[C@](C)(Cc1ccccc1)NC(=O)[C@H](CO)NC(=O)[C@](C)(CO)NC(=O)[C@@H](NC(=O)[C@H](CC(=O)O)NC(=O)[C@@H](NC(=O)[C@@H](NC(=O)[C@](C)(Cc1ccccc1)NC(=O)[C@H](CO)NC(=O)CNC(=O)[C@H](CCC(=O)O)NC(=O)C(C)(C)NC(=O)[C@@H](N)Cc1c[nH]cn1)[C@@H](C)O)[C@@H](C)O)C(C)C)C(=O)N[C@@H](C)C(=O)N[C@@](C)(Cc1ccccc1)C(=O)N[C@H](C(=O)N[C@H](C(=O)N[C@@](C)(CCCCN)C(=O)NCC(=O)NCC(N)=O)C(C)C)C(C)C [compound 29] (H-H[Aib]EGS[αMeF]TTDV[αMeS]S[αMeF]LEGEAA[αMeK]E[αMeF]IA[αMeF]VV[αMeK]GG-NH2)
2.1		CCCCCCCCCCCCCCCC(=O)N[C@@H](CCC(=O)NCCCC[C@H](NC(=O)[C@](C)(Cc1ccccc1)NC(=O)[C@H](C)NC(=O)[C@@H](NC(=O)[C@](C)(Cc1ccccc1)NC(=O)[C@H](CCC(=O)O)NC(=O)[C@](C)(CCCCN)NC(=O)[C@H](C)NC(=O)[C@H](C)NC(=O)[C@H](CCC(=O)O)NC(=O)CNC(=O)[C@H](CCC(=O)O)NC(=O)[C@H](CC(C)C)NC(=O)[C@](C)(Cc1ccccc1)NC(=O)[C@H](CO)NC(=O)[C@](C)(CO)NC(=O)[C@@H](NC(=O)[C@H](CC(=O)O)NC(=O)[C@H](CO)NC(=O)[C@@H](NC(=O)[C@](C)(Cc1ccccc1)NC(=O)[C@H](CO)NC(=O)CNC(=O)[C@H](CCC(=O)O)NC(=O)C(C)(C)NC(=O)[C@@H](N)Cc1c[nH]cn1)[C@@H](C)O)C(C)C)[C@@H](C)CC)C(=O)N[C@H](C(=O)N[C@@](C)(CCCCN)C(=O)NCC(=O)NCC(N)=O)C(C)C)C(=O)O [compound 74] (H-H[Aib]EGS[αMeF]TSDV[αMeS]S[αMeF]LEGEAA[αMeK]E[αMeF]IA[αMeF]K([γGlu-Palmitoyl])V[αMeK]GG-NH2; N-terminus assumed)

From patent US20210221866A1, “PROTEASE-RESISTANT LIPIDATED GLP-1 ANALOGS” (MEDIMMUNE LIMITED, priority 2015, published 2021)
